Assay results from patent US5635359A, “Method for measuring the activity of angiotensin converting enzyme in biological samples” (priority 1991, dated 1997).

Key:
[1] = system: angiotensin converting enzyme (ACE); assay: Plasma ACE-activity, trapping-assay (Ang I substrate, monoclonal antibody TRAP, RIA) after oral enalapril; assay type: in vivo, human; conditions: for ACE-activity measured in vitro with the trapping-assay as percent of baseline / ACE-Activity trapping-assay: mean ± SEM; for ACE-Activity trapping-assay: healthy humans, single oral dose 20 mg enalapril
Method: (§1) Ten normal volunteers aged 20 to 28 years (body weight 63 to 85 kg) participated in the study. On the study day, they came to the hospital at 7 a.m. and were installed in a supine position. At 8 a.m., the subjects ingested 20 mg enalapril, an inhibitor of angiotensin converting enzyme. Venous blood samples were collected before (time 0) and at 0.5, 1, 2, 4, 8 and 24 hours after enalapril intake. The subjects remained in supine position for one hour prior to blood sampling and no food intake was permitted within three hours prior to sampling.
(§2) For the measurement of ACE-activity, blood samples (5 ml) were collected from the antecubital vein into prechilled glass tubes containing heparin (56 USP) and 25 μl renin inhibitor CGP 29287 (Ciba-Geigy, Basel, Switzerland) at 1 mM in water. Blood was centrifuged at 4° C. and 2000 g for 10 minutes and plasma aliquots of 0.5 ml were snap frozen in liquid nitrogen and stored at -70° C. until analyzed.
All procedures were done in an ice-water bath unless stated otherwise: Plasma was thawed and centrifuged at 4° C. and 40 μl supernatant was pipetted into a small polypropylene tube. Ten microliter monoclonal antibody TRAP (which was secreted from the Hybridoma cell line TRAP DSM ACC2003) was added (mouse ascites diluted 1:8400 in 3M tris buffer at pH 7.3). One picomole angiotensin I was added in 10 microliter albumin buffer containing--for blank determination only--EDTA at 0.2M concentration. After mixing and cold centrifugation in order to concentrate the mixture at the bottom of the tube (1 minute at 2000 g) samples were incubated in a water bath at 37° C. for 20 minutes. Incubation was stopped by returning the samples to the ice-water bath. Forty microliters of albumin buffer without/with 0.2M EDTA was added to blanks/samples in order to equalize conditions. Each tube (total 100 microliters) finally received 1 ml albumin buffer containing 1 fmol ^125 I-Ang II (2000 counts per minute) and EDTA at 0.02M concentration. After a 24 hour incubation at 4° C., antibody-bound and free Ang II were separated by adding 0.3 ml water containing 2% dextran-coated charcoal, mixing for 10 minutes, centrifugation at 4° C. (for 20 minutes at 6000 g) and decanting of the supernatant. Supernatant and pellet were counted in a ten-well scintillation counter (GammamasterR, Wallac, Turku, Finland) and generated Ang II was read from a simultaneously established standard curve.
For the standard curve, increasing amounts of unlabeled Ang II ranging from 16 to 4000 fmol in 40 μl pool plasma which contained unmeasurably low endogenous Ang I and Ang II and renin inhibitor CGP 29287 at 0.01 mM concentration; antibody in 3M tris buffer (10 μl) and 1000 fmol Ang I in EDTA-albumin buffer (10 μl) were added in order to obtain identical conditions as for the unknown samples.

[2] = system: angiotensin converting enzyme (ACE); assay: Plasma ACE-activity, conventional assay (substrate carbobenzoxy-Phe-His-Leu) after oral enalapril; assay type: in vivo, human; conditions: for Plasma ACE-activity by the conventional method, % of pretreatment values / ACE-Activity Conventional assay: mean ± SEM; for ACE-Activity Conventional assay: healthy humans, single oral dose 20 mg enalapril
Method: as §1, §2
(§3) Plasma ACE-activity was also measured by an established method using as substrate synthetic carbobenzoxy-Phe-His-Leu at 1.8 mM concentration (Piquilloud Y., Reinharz A., Roth M.. Biochem. Biophys. Acta 1970; 206: 136-142). The ratio of the plasma concentrations Ang II/Ang I was used for estimation of ACE-activity "in vivo" (Nussberger J., Juillerat L., Perret F., Waeber B., Bellet M., Brunner H. R., Menard J., Am Heart J. 1989; 117: 717-722).

angiotensin I = assay: Plasma angiotensin I concentration after oral enalapril; assay type: in vivo, human; conditions: healthy humans, single oral dose 20 mg enalapril, mean ± SEM
Method: as §1
(§4) For the measurement of Ang II (Nussberger J., Brunner D. B., Waeber B., Brunner H. R., Hypertension 1985; 7 (Suppl. I): 11-17) and immunoreactive Ang I (Nussberger J., Brunner D. B., Waeber B., Brunner H. R., Life Sci. 1988; 42:1683-1688), another 10 ml blood were collected on an inhibitor cocktail containing EDTA and renin inhibitor to prevent degradation and generation of these peptides in vitro. Samples were centrifuged at 4° C. and plasma aliquots of 2.2 ml snap frozen and stored as described above.

angiotensin II = assay: Plasma angiotensin II concentration after oral enalapril; assay type: in vivo, human; conditions: healthy humans, single oral dose 20 mg enalapril, mean ± SEM
Method: as §1, §4

[3] = system: angiotensin converting enzyme (ACE); assay: Ratio of plasma Ang II/Ang I as in vivo ACE-activity after oral enalapril; parameters: species or system human; conditions: for In vivo ACE-activity (ratio of plasma Ang II to Ang I) as percent of baseline / Ratio Ang II/Ang I: mean ± SEM; for Ratio Ang II/Ang I: plasma, healthy humans, single oral dose 20 mg enalapril
Method: as §1, §4, §3

[4] = 4 hours post enalapril intake (20 mg oral)
[5] = 8 hours post enalapril intake (20 mg oral)
[6] = 24 hours post enalapril intake (20 mg oral)

Question: CCOC(=O)[C@H](CCc1ccccc1)N[C@@H](C)C(=O)N1CCC[C@H]1C(=O)O [enalapril] was tested. Which “ACE-activity measured in vitro with the trapping-assay as percent of baseline” value (“ACE-activity measured … as percent of baseline” for short) [1, 4] did it give?
Answer: 3.6±2.4%

Question: What about the “ACE-activity measured … as percent of baseline” value [1, 5] of the same compound?
Answer: 1.3±1.3%

Question: What about the “ACE-activity measured … as percent of baseline” value [1, 6] of the same compound?
Answer: 27.4±3.4%

Question: What about the “Plasma ACE-activity measured in vitro, trapping method, returned to” value ([1]; at 24 hours) of the same compound?
Answer: 27%

Question: And the “Decrease of plasma ACE-activity measured in vitro, trapping method” value ([1]; at peak inhibition)?
Answer: 99%

Question: What about the ACE-Activity trapping-assay ([1]; 0.5 h after intake) of the same compound?
Answer: 295 ± 27 fmol/mL/min

Question: What about the ACE-Activity trapping-assay ([1]; 1 h after intake) of the same compound?
Answer: 107 ± 17 fmol/mL/min

Question: What about the ACE-Activity trapping-assay ([1]; 2 h after intake) of the same compound?
Answer: 28 ± 8 fmol/mL/min

Question: And the ACE-Activity trapping-assay ([1]; 4 h after intake)?
Answer: 15 ± 10 fmol/mL/min

Question: What about the ACE-Activity trapping-assay ([1]; 8 h after intake) of the same compound?
Answer: 5 ± 5 fmol/mL/min

Question: And the ACE-Activity trapping-assay ([1]; 24 h after intake)?
Answer: 87 ± 10 fmol/mL/min

Question: What about the “Plasma ACE-activity by the conventional method, % of pretreatment values” (“Plasma ACE-activity … % of pretreatment values” for short) ([2]; 4 hours after enalapril administration (20 mg oral)) of the same compound?
Answer: 16.5±1.7%

Question: What about the “Plasma ACE-activity … % of pretreatment values” ([2]; 8 hours after enalapril administration (20 mg oral)) of the same compound?
Answer: 20.8±1.7%

Question: And the “Plasma ACE-activity … % of pretreatment values” ([2]; 24 hours after enalapril administration (20 mg oral))?
Answer: 62.6±1.6%

Question: And the “ACE-activity, conventional method, return towards baseline” value ([2]; at 24 hours)?
Answer: 66%

Question: What about the “Peak ACE-inhibition, decrease from baseline, conventional method” value ([2]; at peak inhibition) of the same compound?
Answer: 83%

Question: What about the “ACE-Activity Conventional assay” value ([2]; 0.5 h after intake) of the same compound?
Answer: 18.1 ± 1.7 nmol/mL/min

Question: And the “ACE-Activity Conventional assay” value ([2]; 1 h after intake)?
Answer: 12.1 ± 1.2 nmol/mL/min

Question: What about the “ACE-Activity Conventional assay” value ([2]; 2 h after intake) of the same compound?
Answer: 4.5 ± 0.8 nmol/mL/min

Question: What about the “ACE-Activity Conventional assay” value ([2]; 4 h after intake) of the same compound?
Answer: 3.0 ± 0.4 nmol/mL/min

Question: What about the “ACE-Activity Conventional assay” value ([2]; 8 h after intake) of the same compound?
Answer: 3.7 ± 0.4 nmol/mL/min

Question: What about the “ACE-Activity Conventional assay” value ([2]; 24 h after intake) of the same compound?
Answer: 11.2 ± 1.0 nmol/mL/min

Question: What about the “Angiotensin I” value (angiotensin I; 0.5 h after intake) of the same compound?
Answer: 7.3 ± 1.5 fmol/mL

Question: What about the “Angiotensin I” value (angiotensin I; 1 h after intake) of the same compound?
Answer: 13.5 ± 3.0 fmol/mL

Question: What about the “Angiotensin I” value (angiotensin I; 2 h after intake) of the same compound?
Answer: 45.7 ± 12.9 fmol/mL

Question: What about the “Angiotensin I” value (angiotensin I; 4 h after intake) of the same compound?
Answer: 66.8 ± 17.6 fmol/mL

Question: What about the “Angiotensin I” value (angiotensin I; 8 h after intake) of the same compound?
Answer: 76.6 ± 15.9 fmol/mL

Question: And the “Angiotensin I” value (angiotensin I; 24 h after intake)?
Answer: 32.1 ± 6.4 fmol/mL

Question: What about the “Angiotensin II” value (angiotensin II; 0.5 h after intake) of the same compound?
Answer: 4.6 ± 0.5 fmol/mL

Question: What about the “Angiotensin II” value (angiotensin II; 1 h after intake) of the same compound?
Answer: 2.9 ± 0.5 fmol/mL

Question: And the “Angiotensin II” value (angiotensin II; 2 h after intake)?
Answer: 1.1 ± 0.3 fmol/mL

Question: What about the “Angiotensin II” value (angiotensin II; 4 h after intake) of the same compound?
Answer: 1.0 ± 0.2 fmol/mL

Question: What about the “Angiotensin II” value (angiotensin II; 8 h after intake) of the same compound?
Answer: 1.6 ± 0.4 fmol/mL

Question: What about the “Angiotensin II” value (angiotensin II; 24 h after intake) of the same compound?
Answer: 3.8 ± 0.5 fmol/mL

Question: And the “In vivo ACE-activity (ratio of plasma Ang II to Ang I) as percent of baseline” value [3, 4]?
Answer: 2.1±0.3%

Question: What about the “In vivo ACE-activity (ratio of plasma Ang II to Ang I) as percent of baseline” value [3, 5] of the same compound?
Answer: 2.0±0.4%

Question: What about the “In vivo ACE-activity (ratio of plasma Ang II to Ang I) as percent of baseline” value [3, 6] of the same compound?
Answer: 21.9±5.0%

Question: And the “In vivo ACE-activity (ratio of plasma Ang II to Ang I) returned to” value ([3]; at 24 hours)?
Answer: 22%

Question: And the “Decrease of in vivo ACE-activity (ratio of plasma Ang II to Ang I)” value ([3]; at peak inhibition)?
Answer: 98%

Question: What about the “Ratio Ang II/Ang I” value ([3]; 0.5 h after intake) of the same compound?
Answer: .748 ± .101

Question: And the “Ratio Ang II/Ang I” value ([3]; 1 h after intake)?
Answer: .315 ± .094

Question: And the “Ratio Ang II/Ang I” value ([3]; 2 h after intake)?
Answer: .029 ± .006

Question: What about the “Ratio Ang II/Ang I” value ([3]; 4 h after intake) of the same compound?
Answer: .015 ± .003

Question: And the “Ratio Ang II/Ang I” value ([3]; 8 h after intake)?
Answer: .016 ± .003

Question: What about the “Ratio Ang II/Ang I” value ([3]; 24 h after intake) of the same compound?
Answer: .147 ± .027
